Tests used:
rats (Sprague-Dawley) [1] = experiment: Rat Einthoven assay (bronchoprotection against MCh); format: in vivo; conditions: for ID50 (potency): 1.5 hrs post-dose
Description: All test compounds are diluted in sterile water and are dosed via the inhalation route (IH). The rats (Sprague-Dawley, male, 250-350 g) are exposed to the aerosol generated from an LC Star Nebulizer Set and driven by a mixture of gases (5% CO2/95% atmospheric air). Each test compound solution is nebulized over a 10 minute time period in a pie shaped dosing chamber capable of holding six rats. At predetermined time points after inhalation of compound, the Einthoven assay is performed.
Thirty minutes prior to the start of pulmonary evaluation, the animals are anesthetized with inactin (thiobutabarbital, 120 mg/kg IP). The jugular vein is catheterized with saline filled polyethylene catheters (PE-50) and used to infuse MCh. The trachea is then dissected and cannulated with a 14G needle and used for rat ventilation during pulmonary evaluation. Once surgery is complete, rats are ventilated using a piston respirator set at a stroke volume of 1 ml/100 g body weight but not exceeding 2.5 ml volume, and at a rate of 90 strokes per minute.
The changes in pressure that occur with each breath are measured. Baseline values are collected for at least 2.5 minutes then rats are challenged non-cumulatively with 2-fold incremental increases of the bronchoconstrictor MCh (5, 10, 20, 40 and 80 μg/ml). The MCh is infused for 2.5 minutes from a syringe pump at a rate of 2 mL/kg/min. The animals are euthanized upon completion of the studies.
Changes in ventilation pressure (cm H20) in treated animals are expressed as % inhibition of MCh response relative to control animals.
Standard muscarinic antagonists were evaluated in the rat Einthoven assay 1.5 hrs post-dose.
Standards tiotropium and ipratropium were also evaluated 24 hr and/or 6 hr post-dose in the rat Einthoven assay. […] The observed loss of activity at this time point (6 hr) is consistent with its relatively short duration of action in the clinic.

rats (Sprague-Dawley) [2] = experiment: Rat antisialagogue assay (pilocarpine-induced salivation); format: in vivo; conditions: evaluated at 1, 6, and 24 hr post-dose
Description: Rats (Sprague-Dawley, male, 250-350 g) are dosed, anesthetized and cannulated as described for Assay 3. At predetermined time points and after surgery, animals are placed on their dorsal side at a 20° incline with their head in a downward slope. A pre-weighed gauze pad is inserted in the animal's mouth and the muscarinic agonist pilocarpine (PILO) (3 mg/kg, iv.) is administered. Saliva produced during 10 minutes post-PILO is measured gravimetrically by determining the weight of the gauze pad before and after PILO. Antisialagogue effects are expressed as % inhibition of salivation relative to control animals.
The rat antisialagogue assay was developed to assess systemic exposure and calculate the lung selectivity index (LSI) of test compounds. The standard, tiotropium, was evaluated in this model at 1, 6, and 24 hr post-dose. […] This finding is consistent with the peak effects observed in the Einthoven assay.
This model is a modified version of the procedure described in Rechter, “Estimation of anticholinergic drug effects in mice by antagonism against pilocarpine-induced salivation” Ata Pharmacol Toxicol 24:243-254 (1996). The mean weight of saliva in vehicle-treated animals, at each pre-treatment time, is calculated and used to compute % inhibition of salivation, at the corresponding pre-treatment time, at each dose.

| SMILES | ID50 (potency) (rats (Sprague-Dawley) [1]; inhalation) | fold less potent 6-hr post-dose compared to 1.5 hr potency (rats (Sprague-Dawley) [1]; 6-hr post-dose, 10 and 30 μg/ml) | 6 hr versus 24 hr potency values (rats (Sprague-Dawley) [1]; 6 hr and 24 hr post-dose) | fold more potent at 6 hr and 24 hr compared to 1.5 hr potency (rats (Sprague-Dawley) [1]; 6 hr and 24 hr post-dose) | time of peak bronchoprotection post-dose (rats (Sprague-Dawley) [1]; inhalation) | time post dose at which most potent at inhibiting pilocarpine-induced salivation (rats (Sprague-Dawley) [2]) |
| --- | --- | --- | --- | --- | --- | --- |
| C[N+]1(C)CCC(OC(=O)C(O)(c2ccccc2)C2CCCC2)C1 (centres unmarked) [glycopyrrolate] | 15 mg/L |  |  |  |  |  |
| CC(C)[N+]1(C)[C@@H]2CC[C@H]1C[C@@H](OC(=O)C(CO)c1ccccc1)C2 (some centres unmarked) [ipratropium] | 4.4 mg/L | about 3 fold |  |  |  |  |
| C[N+]1(C)[C@@H]2C[C@@H](OC(=O)C(O)(c3cccs3)c3cccs3)C[C@H]1[C@@H]1O[C@@H]12 [tiotropium] | 6 mg/L |  | not significantly different from each other | about 2 fold | 6 h | 6 h |

— patent US8338424B2, “Guanidine-containing compounds useful as muscarinic receptor antagonists” (Theravance, Inc., priority 2007, dated 2012)
